From PubChem BioAssay (NCI)
Where “and” joins values, the source holds several entries; their conditions need not be identical. Equal values may be shown once.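 The compound was tested at five concentrations on cells cultured in 96-well plates, with a 48-hour exposure period. The concentration for 50% growth inhibition is given as GI50. TGI: concentration producing complete growth inhibition.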

What was measured:
Test in all cases: DTP human tumour cell line panel, 48 h
HOP-92 NSCLC = test system: HOP-92 NSCLC
A498 renal = test system: A498 renal
DU-145 prostate = test system: DU-145 prostate
UO-31 renal = test system: UO-31 renal
K-562 leukemia = test system: K-562 leukemia
SR leukemia = test system: SR leukemia
SK-MEL-2 melanoma = test system: SK-MEL-2 melanoma
MOLT-4 leukemia = test system: MOLT-4 leukemia
LOX IMVI melanoma = test system: LOX IMVI melanoma
NCI-H460 lung = test system: NCI-H460 lung

Row | Compound | TGI (HOP-92 NSCLC) | TGI (A498 renal) | TGI (DU-145 prostate) | TGI (UO-31 renal) | TGI (K-562 leukemia) | TGI (SR leukemia) | TGI (SK-MEL-2 melanoma) | TGI (MOLT-4 leukemia) [µM] | TGI (LOX IMVI melanoma) | TGI (NCI-H460 lung) | GI50 (HOP-92 NSCLC) | GI50 (A498 renal) | GI50 (DU-145 prostate) | GI50 (UO-31 renal) | GI50 (K-562 leukemia) | GI50 (SR leukemia) | GI50 (SK-MEL-2 melanoma) | GI50 (MOLT-4 leukemia) | GI50 (LOX IMVI melanoma) | GI50 (NCI-H460 lung)
1 | N=C1C(O)C2(I)c3ccccc3N3C(=N)C(O)C4c5ccccc5N1C4C32 (stereo not drawn) | > 100 µM | > 100 µM | > 100 µM | > 100 µM | > 100 µM | > 100 µM | > 100 µM | > 100 | > 100 µM | > 100 µM |  |  |  |  |  |  |  |  |  | 
2 | Nc1ncn([C@@H]2S[C@H](CO)[C@@H](O)[C@@H]2F)c(=O)n1 | > 100 µM |  | > 100 µM | > 100 µM | > 100 µM | > 100 µM | > 100 µM | > 100 | > 100 µM | > 100 µM | 0.623 µM | 0.267 µM | 0.508 µM | 0.372 µM | 1.81 µM | 0.648 µM | > 100 µM | 0.172 µM | 1.16 µM | 0.442 µM
3 | CN(C)CCNC(=O)Cn1ccc(=O)c2cc([N+](=O)[O-])ccc21 | > 100 µM | > 100 µM | > 100 µM | > 100 µM | > 100 µM | > 100 µM | > 100 µM | > 100 | > 100 µM | > 100 µM |  |  |  |  |  |  |  |  |  | 
4 | O=c1oc2ccccc2c2c1Sc1ccccc1N2 | > 100 µM | > 100 µM | > 100 µM | > 100 µM | > 100 µM | > 100 µM | > 100 µM | > 100 | > 100 µM | > 100 µM |  |  |  |  |  |  |  |  |  | 
5 | CCSC1=NC2C(N(CC)C(=O)N2CC)N1/N=C/C=C/c1ccccc1[N+](=O)[O-] (stereo not drawn) | > 83.8 µM | 0.209 µM | > 100 µM | > 100 µM | > 100 µM | > 48 µM | > 100 µM | > 100 | > 100 µM | 12.2 µM | 1.17 µM | 0.0283 µM | 0.325 µM | 0.664 µM | 0.0583 µM | 0.0895 µM | 0.567 µM | 0.419 µM | 0.126 µM | 0.228 µM
6 | CCOc1ccccc1CCN=C1NC(=O)/C(=C/c2ccc3ncccc3c2)S1 | 14.6 µM | 12.8 µM | > 16.2 µM | 15.9 µM | 19.8 µM | 3.04 µM | 11.5 µM | > 25 | 7.9 µM | > 25 µM | 3.28 µM | 0.744 µM | 1.2 µM | 1.31 µM | 0.84 µM | 0.146 µM | 4.64 µM | 4.02 µM | 1.16 µM | 0.879 µM
7 | O=C(Nc1cccc(Cl)c1)Nn1cnnc1 | 50 µM and > 100 µM | > 100 µM | > 100 µM | > 100 µM | > 100 µM | > 100 µM | > 100 µM | > 100 | > 50 µM | > 100 µM | 12.7 µM | > 50 µM | > 50 µM | > 50 µM | > 50 µM |  | > 50 µM | > 50 µM | > 50 µM | > 50 µM
8 | CC1=C2C(=C[C@@](C)(CO)[C@@H]2OC(=O)N(C)CCN(C)C(=O)OC(C)(C)C)C(=O)[C@](C)(O)C12CC2 | 25.1 µM | 20.1 µM | 32.4 µM | 14.9 µM | > 50 µM | > 50 µM | 17.3 µM | > 50 | > 50 µM | 5.42 µM | 8.08 µM | 8.8 µM | 1.78 µM | 2.17 µM | 21.4 µM | 2.39 µM | 7.63 µM | 31.5 µM | 12.2 µM | 1.45 µM
9 | Nc1nc2ccc(-c3nc4ccc5[nH]ncc5c4c4c3CCC4)cc2s1 | 6.87 µM | 0.624 µM | 5.62 µM | 3.58 µM | 33.2 µM | 22.4 µM | 8.08 µM | 10.7 | 8.9 µM | 5.12 µM | 0.66 µM | 0.108 µM | 0.787 µM | 0.741 µM | 0.115 µM | 0.155 µM | 0.567 µM | 0.294 µM | 0.281 µM | 0.208 µM
10 | O=C1OCC2=C1C(c1cccc(F)c1)c1cc3c(cc1N2CCO)OCO3 (stereo not drawn) | > 50 µM | 4.87 µM | > 50 µM | > 50 µM | > 50 µM | > 50 µM | > 50 µM | > 50 | > 50 µM | > 50 µM | 3.1 µM | 1.11 µM | 2.71 µM | 2.88 µM | 0.353 µM | 0.294 µM | 2.46 µM | 3.02 µM | 2.35 µM | 2.08 µM
11 | O=S(=O)(/N=c1\scc(-c2ccccc2)n1-c1ccccc1)c1ccc(N2N=C3c4ccccc4CC3C2c2ccc(Cl)cc2)cc1 (stereo not drawn) | > 100 µM | > 100 µM | > 100 µM | > 100 µM | 55.5 µM | 45.9 µM | > 100 µM | > 100 | 43.5 µM | > 100 µM | 38.6 µM | 79.8 µM | 54.3 µM | 45.4 µM | 20 µM | 17.3 µM | 36 µM | 18.5 µM | 21.5 µM | > 100 µM
12 | CCOC(=O)Oc1c(OC)cc(C(=O)c2ccc(OC)c(O)c2OC)cc1OC | > 100 µM | 17 µM | > 100 µM | > 100 µM | > 100 µM | > 100 µM | > 100 µM | > 100 | > 100 µM | > 100 µM | 0.727 µM | 3.19 µM | 0.885 µM | 3.54 µM | 0.416 µM | 0.381 µM | 1.79 µM | 0.492 µM | 0.557 µM | 1.78 µM
13 | Cn1ncc(-c2ccc3c(=O)[nH]nc(CN)c3c2)c1-c1c(F)c(Cl)cc(OC2CC2)c1C#N | 31.1 µM and 25.5 µM | 29.8 µM and 27.5 µM | 32.2 µM and 28.1 µM | 24.9 µM and 22.1 µM | 92.1 µM and > 100 µM | 34.8 µM and 41 µM | 29.1 µM and 26.8 µM | > 100 | 25.6 µM and 26.2 µM | 28.8 µM and 26.7 µM | 12.9 µM and 10.1 µM | 16 µM and 14.3 µM | 16.9 µM and 14.4 µM | 12.4 µM and 10.3 µM | 14.5 µM and 14.8 µM | 13.1 µM and 12.3 µM | 15.3 µM and 13.6 µM | 10.9 µM and 11.7 µM | 12.5 µM and 12.9 µM | 13.6 µM and 12.4 µM
